# Data: patent US11136314B2, “Forms of afatinib dimaleate” (Johnson Matthey Public Limited Company, priority 2017, dated 2021)
# Assay: Solid form stability under exposure to water / humidity
# Assay type: physicochemical
smiles,measurement,setting,value
"CN(C)C/C=C/C(=O)Nc1cc2c(Nc3ccc(F)c(Cl)c3)ncnc2cc1O[C@H]1CCOC1.O=C(O)/C=C\C(=O)O.O=C(O)/C=C\C(=O)O [Afatinib dimaleate Form A, afatinib dimaleate]",completely converts to a hydrated species,"40° C., 75% RH",≤ 11 days
"CN(C)C/C=C/C(=O)Nc1cc2c(Nc3ccc(F)c(Cl)c3)ncnc2cc1O[C@H]1CCOC1.O=C(O)/C=C\C(=O)O.O=C(O)/C=C\C(=O)O [Form Z, afatinib dimaleate]",stability compared with afatinib dimaleate Form A,"40° C., 75% RH",more stable than afatinib dimaleate Form A
same,stable under exposure to water vapor under ambient conditions,"about 25° C., >90% RH",about 3 days
same,"stable at about 40° C., 75% RH","about 40° C., 75% RH",over 19 days
same,stability under exposure to water,exposure to water,stable under exposure to water
